Laboratory results: the Kinase Knowledgebase extract (Sharma et al. 2016)

The molecules below were run against CDK2 (human) (UniProt P24941) (assay: Enzyme Assay).

| Structure (SMILES) | Ki [nM] |
| --- | --- |
| COCCNc1cc(Nc2cc(C)[nH]n2)nc(OCc2ccc3c(=O)[nH][nH]c3c2)n1 | < 1000 |
| Cc1cnc(NC(CCNc2ccc3c(=O)[nH][nH]c3c2)c2ccccc2)s1 (stereo not drawn) | < 1000 |
| O=C(CCCc1ccc2c(=O)[nH][nH]c2c1)Nc1cc(C2CC2)[nH]n1 | < 1000 |
| Cc1cnc(NC(=O)CC(=O)Cc2ccc3c(=O)[nH][nH]c3c2)s1 | < 1000 |
| Cn1cnc(NC2CCCC(Sc3ccc4c(=O)[nH][nH]c4c3)C2)c1 (stereo not drawn) | < 1000 |
| NCCOc1cccc2c(Nc3n[nH]c4ccccc34)nc(-c3ccc4[nH][nH]c(=O)c4c3C(F)(F)F)nc12 | < 1000 |
| O=c1[nH][nH]c2cc(Nc3cc(Nc4n[nH]c5ccccc45)c4ccccc4n3)ccc12 | < 1000 |
| Cc1cnc(NC2CCCC2COc2ccc3c(=O)[nH][nH]c3c2)s1 (stereo not drawn) | < 1000 |
| Cc1cc(Nc2nc(Oc3ccc4c(=O)[nH][nH]c4c3)cc3ccccc23)n[nH]1 | < 1000 |
| Cc1cnc(NOCCNc2ccc3c(=O)[nH][nH]c3c2)s1 | < 1000 |
| Cc1cc(Nc2nc(Sc3ccc4c(=O)[nH][nH]c4c3)nc3ccccc23)n[nH]1 | < 1000 |
| CS(=O)(=O)N1CCCCC1c1cc(Nc2n[nH]c3ccccc23)nc(-c2ccc3[nH][nH]c(=O)c3c2C(F)(F)F)n1 (stereo not drawn) | < 1000 |
| O=c1[nH][nH]c2ccc(-c3cc(Nc4n[nH]c5cccnc45)c4ccccc4n3)cc12 | < 1000 |
| O=c1[nH][nH]c2ccc(-c3nc4c(c(Nc5n[nH]c6c(F)cccc56)n3)CCCCC4)c(Cl)c12 | < 1000 |
| CC(C)(C)c1cc(Nc2cc(-c3cccc([N+](=O)[O-])c3)nc(Nc3ccc4c(=O)[nH][nH]c4c3)n2)n[nH]1 | < 1000 |
| O=c1[nH][nH]c2cc(OCCCNc3ccccn3)ccc12 | < 1000 |
| O=C(CCSc1ccc2c(=O)[nH][nH]c2c1)Nc1nccnn1 | < 1000 |
| COCCCc1cc(Nc2nc(-c3ccc4[nH][nH]c(=O)c4c3)nc3ccccc23)n[nH]1 | < 1000 |
| Cc1nc(-c2ccc3[nH][nH]c(=O)c3c2Cl)nc(Nc2n[nH]c(C3CCCC3)n2)c1C | < 1000 |

| Structure (SMILES) | Ki [nM] |
| --- | --- |
| CN(C)CCCOc1cc(Nc2cc(C3CC3)[nH]n2)nc(Sc2ccc3c(=O)[nH][nH]c3c2)n1 | < 1000 |
| N#Cc1cc2[nH][nH]c(=O)c2cc1-c1nc(Nc2n[nH]c3ccccc23)nc(N2CCCCC2)n1 | < 1000 |
| O=c1[nH][nH]c2cc(NC3CCCC(Nc4nccnn4)C3)ccc12 (stereo not drawn) | < 1000 |
| O=c1[nH][nH]c2ccc(-c3nnc(C4CCNCC4)c(Nc4n[nH]c5ccccc45)n3)c(C(F)(F)F)c12 | < 1000 |
| O=c1[nH][nH]c2cc(CCCCNc3cc(C4CC4)[nH]n3)ccc12 | < 1000 |
| Cc1cccc(-c2cc(Nc3cc(C)[nH]n3)nc(Oc3ccc4c(=O)[nH][nH]c4c3)n2)c1 | < 1000 |
| CC1CCN(c2nc(Nc3n[nH]c4ccccc34)nc(-c3cc4c(=O)[nH][nH]c4cc3C(F)(F)F)n2)C1 (stereo not drawn) | < 1000 |
| O=c1[nH][nH]c2cc(NC3COCC(Nc4nccnn4)C3)ccc12 (stereo not drawn) | < 1000 |
| Cc1cnc(NC2CCCC(c3ccc4[nH][nH]c(=O)c4c3)C2)s1 (stereo not drawn) | < 1000 |
| CCc1cc(Nc2cc(C)[nH]n2)nc(Nc2ccc3c(=O)[nH][nH]c3c2)n1 | < 1000 |
| CN1CCC(OCc2cc(Nc3cc(C4CC4)[nH]n3)nc(Sc3ccc4c(=O)[nH][nH]c4c3)n2)CC1 | < 1000 |
| Cc1c(Nc2n[nH]c3ccccc23)nc(-c2cc3c(=O)[nH][nH]c3cc2Cl)nc1N1CCOCC1 | < 1000 |
| Cc1cnc(NCCCOc2ccc3c(=O)[nH][nH]c3c2)s1 | < 1000 |
| Cc1cc(Nc2cc(-c3ccccc3)[nH]n2)nc(-c2ccc3[nH][nH]c(=O)c3c2)n1 | < 1000 |
| COCCNC(=O)c1cc(Nc2cc(C)[nH]n2)nc(Sc2ccc3c(=O)[nH][nH]c3c2)n1 | < 1000 |
| Cc1cc(Nc2nc(-c3ccc4[nH][nH]c(=O)c4c3C(F)(F)F)nc3c2CCNCC3)n[nH]1 | < 1000 |
| O=c1[nH][nH]c2cc(C(F)(F)F)c(-c3nc(Nc4n[nH]c5ccccc45)nc(N4CCSCC4)n3)cc12 | < 1000 |
| Cn1cnc(NCCONc2ccc3c(=O)[nH][nH]c3c2)c1 | < 1000 |
| Nc1ccc(Nc2ccc3c(=O)[nH][nH]c3c2)nc1Nc1cc(C2CC2)[nH]n1 | < 1000 |
